Experimental data: US5677336A, “Non-steroid androgen receptor antagonist compounds and methods” (Ligand Pharmaceuticals Incorporated, priority 1993, dated 1997)
Where two headings read alike, the source gives them in different places.

Columns and labels:
[1] = system: progesterone receptor (PR-TI); test: Antagonist activity on progesterone receptor, CV-1 cells cotransfected with pRShPR-B altered at Tau-1 (PR-TI); assay type: cell-based, human; details: Table 2, CV-1 cells PR-TI; for Efficacy, PR-TI (% maximal response): comparable to that found with RU-486; for IC50: read-out: Potency, PR-TI (IC50)
Excerpt: (§1) In the co-transfection assay, a cloned gene for an intracellular receptor (e.g., androgen receptor) is introduced by transfection (a procedure to induce cells to take up foreign genes) into a background cell substantially devoid of endogenous intracellular receptors. This introduced gene directs the recipient cells to make the intracellular receptor protein. A second gene is also introduced (co-transfected) into the same cells in conjunction with the intracellular receptor gene. This second gene functions as a reporter for the transcription-modulating activity of the target intracellular receptor. Thus, the reporter acts as a surrogate for the products normally expressed by a gene under control of the target receptor and its natural hormone. A preferred reporter gene is one which expresses the firefly enzyme luciferase.
(§2) The co-transfection assay can detect small molecule agonists or antagonists of target intracellular receptors. Exposing the cells to an agonist ligand increases reporter activity in the transfected cells. This activity can be conveniently measured, e.g., by increasing luciferase production, which reflects ligand-dependent, intracellular receptor-mediated increases in reporter transcription. To detect antagonists, the co-transfection assay is carried out in the presence of a constant concentration of an agonist (e.g., for androgen receptor, dihydrotestosterone) known to induce a defined reporter signal. Increasing concentrations of a test antagonist will decrease the reporter signal (e.g., luciferase production). The co-transfection assay is therefore useful to detect both agonists and antagonists of specific intracellular receptors. It determines not only whether a compound interacts with a particular intracellular receptor, but whether this interaction mimics (agonizes) or blocks (antagonizes) the effects of the natural regulatory molecules on target gene expression, as well as the specificity and strength of this interaction.
(§3) Co-transfected cells are exposed to a medium to which is added the potential ligand (compound) that is being evaluated. If the candidate compound diffuses into the cell, binds to the receptor, and the resulting receptor complex functions as an agonist, it will subsequently bind to the co-transfected reporter gene and initiate transcription. Typically, the reporter gene is one that expresses luciferase, which is capable of catalyzing a light-emitting reaction with its substrate luciferin. Thus, after cell lysis and the introduction of luciferin, the amount of light produced relative to the concentration of candidate compound used in the assay provides a measure of the potency and efficacy of the compound tested. Antagonist activity is evaluated by adding the candidate ligand and a known agonist to the co-transfected cells.
The specific activity of Compounds A-J was compared relative to their antagonist activity on the human progesterone receptor (PR) utilizing CV-1 cells cotransfected with plasmid pRShPR-B, as altered at the Tau-1 location (e.g., PR-TI)[specifically, hPR-B was excised from the vector pGEM3Z (69 Cell 703 (1992)); the Tau-1 fragment of the gluccocorticoid receptor was inserted into hPR-B at the unique HincII site in the N-terminal region; a Bst EII to BST bI fragment spanning the Tau-1 insertion was then used to replace the corresponding region in pRShPR-B]. […] Potency or IC50 is as reported for AR-wt transfected CV-1 cells.

[2] = target: T1, androgen receptor (Homo sapiens, UniProt P10275); test: Co-transfection androgen antagonist assay (CV-1 cells, pRShAR, MTV-LUC reporter; AR-wt); assay type: cell-based; details: for IC50: read-out: Potency (IC50, concentration required to reduce the maximal response by 50%)
T1 construct: expressed in transfected cells; host or cells: CV-1 (monkey kidney fibroblast) cells, plasmid pRShAR, with reporter plasmid MTV-LUC
T1 sequence (P10275 1-920): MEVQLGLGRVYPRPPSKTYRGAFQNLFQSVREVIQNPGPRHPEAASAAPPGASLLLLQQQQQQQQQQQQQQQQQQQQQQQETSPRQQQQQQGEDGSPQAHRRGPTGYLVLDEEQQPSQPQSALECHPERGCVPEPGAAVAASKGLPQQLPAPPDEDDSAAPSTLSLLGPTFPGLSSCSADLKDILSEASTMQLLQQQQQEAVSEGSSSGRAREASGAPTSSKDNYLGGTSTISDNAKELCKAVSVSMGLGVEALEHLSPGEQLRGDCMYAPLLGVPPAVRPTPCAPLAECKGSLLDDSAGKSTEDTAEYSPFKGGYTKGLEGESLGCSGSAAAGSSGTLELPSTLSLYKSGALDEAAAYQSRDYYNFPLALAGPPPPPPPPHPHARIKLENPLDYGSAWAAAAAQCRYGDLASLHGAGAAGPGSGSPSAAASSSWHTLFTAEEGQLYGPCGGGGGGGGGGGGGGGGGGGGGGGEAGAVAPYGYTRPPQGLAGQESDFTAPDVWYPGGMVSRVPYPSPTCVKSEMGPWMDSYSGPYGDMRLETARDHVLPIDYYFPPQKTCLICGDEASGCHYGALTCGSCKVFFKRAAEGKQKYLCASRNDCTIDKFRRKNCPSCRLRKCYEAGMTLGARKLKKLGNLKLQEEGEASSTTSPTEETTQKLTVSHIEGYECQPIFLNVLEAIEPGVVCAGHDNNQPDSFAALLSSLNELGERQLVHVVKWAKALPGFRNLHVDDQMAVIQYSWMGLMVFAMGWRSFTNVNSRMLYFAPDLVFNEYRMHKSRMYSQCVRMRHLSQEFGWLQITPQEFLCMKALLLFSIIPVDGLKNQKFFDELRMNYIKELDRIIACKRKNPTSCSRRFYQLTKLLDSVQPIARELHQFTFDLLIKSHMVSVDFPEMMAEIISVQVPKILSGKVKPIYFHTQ
Excerpt: The co-transfection assay provides a method for identifying functional ligands (either agonists which mimic, or antagonists which inhibit, the effect of hormones), and quantifying their activity for ligand-responsive receptor proteins. In this regard, the co-transfection assay mimics an in vivo system in the laboratory. Importantly, activity in the co-transfection assay correlates very well with known in vivo activity, such that the co-transfection assay functions as a quantitative predicator of a tested compounds in vivo pharmacology. See, e.g., T. Berger et al. 41 J. Steroid Biochem. Molec.
as §1, §2
as §3, with “cells. […]” for “cells.”

[3] = CV-1, Table 1, androgen antagonists, relative to 2-Hydroxy-flutamide, read-out: Efficacy (% maximal response relative to 2-Hydroxy-flutamide)
[4] = Table 2, CV-1 cells AR-wt, read-out: Efficacy, AR-wt

Row | Structure (SMILES) | IC50 [1] | Emax [2, 3] | IC50 ([2]; Table 1, androgen antagonists) | Emax [2, 4] | Efficacy, PR-TI (% maximal response) [1]
1 | COc1cc(C[C@@H]2CCCC[C@@]2(C)O)c(O)cc1Br (relative stereo) [Q, trans-1-Methyl-2-(2'-hydroxy-4'-bromo-5'-methoxyphenyl)methylcyclohexan-1-ol] | – | 94% | 460 nM | – | –
2 | C=C1C[C@H](C)CC(C)(C)[C@@H]1Cc1cc(OC)c(Br)cc1O (relative stereo) [S, cis-1Methylidene-2-(2'-hydroxy-4'-bromo-5'-methoxyphenyl)methyl-3,3,5-trimethyl-cyclohexane] | – | 92% | 500 nM | – | –
3 | C=C1[C@@H](Cc2cc(OC)c(Br)cc2O)C(C)(C)CC[C@@H]1O [B, (1S,3S)-1-Hydroxy-2-methylidene-3-(2'-hydroxy-4'-bromo-5'-methoxyphenyl)methyl-4,4-dimethylcyclohexane] | 865 nM | 85% | 180 nM | 85% | 98%
4 | C=C1C=CCC(C)(C)C1Cc1ccccc1O (stereo not drawn) [C, 1-Methylidene-6-(2'-hydroxyphenyl)methyl-5,5-dimethylcyclohex-2-ene] | > 10000 nM | 82% | 210 nM | 82% | 20%
5 | C=C1CCCC(C)(C)C1Cc1ccccc1O (stereo not drawn) [D] | 3500 nM | 92% | 220 nM | 92% | 73%
6 | C=C1C=CC(Br)C(C)(C)[C@H]1Cc1cc(OC)c(Br)cc1OC(C)=O (stereo partly drawn) [E, (4S,6S)-1-Methylidene-4-bromo-5-(2'-acetoxy-4'-bromo-5'-methyoxyphenyl)methyl-5,5-dimethylcyclohex-2-ene] | > 10000 nM | 60% | 230 nM | 60% | 20%
7 | C=C1C=CCC(C)(C)C1Cc1cc(OC)c(Br)cc1OC(C)=O (stereo not drawn) [F] | 820 nM | 87% | 240 nM | 87% | 53%
8 | COc1cc(CC2C(C)(C)CC(C)=CC23CC3)c(OC(C)=O)cc1Br (stereo not drawn) [H, 8-(2'-Acetoxy-4'-bromo-5 '-methoxyphenyl)methyl-5,7,7-trimethylspiro[2.51]oct-4-ene] | 160 nM | 89% | 250 nM | 89% | 26%
9 | C=C1CCC(C)(C)C1Cc1cc(OC)c(Br)cc1O (stereo not drawn) [K, 1-Methylidene-2-(2'-hydroxy-4'-bromo-5'methoxyphenyl)methyl-3,3-dimethylcyclo-pentane] | – | 91% | 330 nM | – | –
10 | C=C1C=CC[C@@H](C)[C@@H]1Cc1cc(OC)c(Br)cc1OC(C)=O [L, (5R,6S)-1-Methylidene-6-(2'-acetoxy-4'-bromo-5'-methoxyphenyl)methyl-5-methylcyclohex-2-ene] | – | 88% | 370 nM | – | –
11 | C=C1C=C(C)C[C@@H](C)[C@@H]1Cc1cc(OC)c(Br)cc1OC(C)=O [O, (5R,6S)-1-Methylidene-6-(2'-acetoxy-4'-bromo-5 '-methoxyphenyl)methyl-3,5-dimethyl-cyclohex-2-ene] | – | 78% | 390 nM | – | –
12 | C=C1[C@@H](Cc2cc(OC)c(Br)cc2O)C(C)(C)CC[C@@]1(C)O [P, (1R,3S)-1-Hydroxy-2-methylidene-3-(2'-hydroxy-4'-bromo-5'-methoxyphenyl)methyl-1,4,4-trimethylcyclohexane] | – | 88% | 420 nM | – | –
13 | C=C1[C@H](O)CCC(C)(C)[C@H]1Cc1cc(OC)c(Br)cc1O [R, (1R,3R)-1-Hydroxy-2-methylidene-3-(2'-hydroxy-4'-bromo-5'-methoxyphenyl)methyl-4,4-dimethylcyclohexane] | – | 70% | 500 nM | – | –
14 | C=C1C=CCC(C)(C)C1Cc1cc(OC)c(Br)cc1O (stereo not drawn) [W, 1-Methylidene-6-(2'-hydroxy-4'-bromo-5'-methoxyphenyl)methyl-5,5-dimethylcyclo-hex-2-ene] | – | 89% | 610 nM | – | –

Further lines, with some results ahead:

Row | IC50 [1] | Emax [2, 3] | IC50 ([2]; Table 1, androgen antagonists) | Emax [2, 4] | Structure (SMILES) | Efficacy, PR-TI (% maximal response) [1]
15 | 360 nM | 85% | 290 nM | 85% | O=[N+]([O-])c1ccc(C[C@@H]2CCCC[C@H]2O)cc1 (relative stereo) [I, trans-2-(4'-Nitrophenyl)methylcyclohexan-1-ol] | 99%
16 | 3800 nM | 69% | 66 nM | 69% | C=C1C=CCC(C)(C)C1Cc1cccc([N+](=O)[O-])c1 (stereo not drawn) [Compound A, 1-Methylidene-6-(3'-nitrophenyl)methyl-5,5-dimethylcyclohex-2-ene] | 45%
17 | 920 nM | 79% | 250 nM | 79% | O=C1CCCCC1Cc1ccc([N+](=O)[O-])cc1 (stereo not drawn) [G, 2-(4'-Nitrophenyl)methylcyclohexan-1-one] | 98%
18 | – | 88% | 545 nM | – | C=C1C=CCC(C)(C)C1Cc1ccc([N+](=O)[O-])c(C)c1 (stereo not drawn) [T, 1-Methylidene-6-(3'-methyl-4'-nitrophenyl)methyl-5,5-dimethylcyclohex-2-ene] | –
19 | – | 69% | 565 nM | – | C=C1C=C(C)CC(C)(C)C1Cc1ccc([N+](=O)[O-])c(C)c1 (stereo not drawn) [U, 1-Methylidene-6-(3'-methyl-4'-nitrophenyl)methyl-3,5,5-trimethylcyclohex-2-ene] | –
20 | – | 85% | 590 nM | – | CC1(C)CCCC(=O)C1Cc1ccc([N+](=O)[O-])cc1 (stereo not drawn) [V, 2-(4'-Nitrophenyl)methyl-3.3-dimethylcyclohexan-1-one] | –
21 | – | 67% | 340 nM | – | COc1cc(CC2CCCCC2=O)c(O)cc1Br (stereo not drawn) [Y, 2-(2'-hydroxy-4'-bromo-5 '-methoxyphenyl)methylcyclohex-1-one] | –
